This is an account of results in US12661410B2, “Compounds for targeted degradation of RET” (C4 Therapeutics, Inc., priority 2020, dated 2026).

Each structure is given as a SMILES string. Changes are numbered by the printed parent chain.

One test has as its target T1, RET (658-1114) (Homo sapiens, UniProt P07949).
T1 construct: 658-1114; expressed in transfected cells; host or cells: 293T.144 (293T cells, generated in-house)
T1 sequence (P07949 658-1114): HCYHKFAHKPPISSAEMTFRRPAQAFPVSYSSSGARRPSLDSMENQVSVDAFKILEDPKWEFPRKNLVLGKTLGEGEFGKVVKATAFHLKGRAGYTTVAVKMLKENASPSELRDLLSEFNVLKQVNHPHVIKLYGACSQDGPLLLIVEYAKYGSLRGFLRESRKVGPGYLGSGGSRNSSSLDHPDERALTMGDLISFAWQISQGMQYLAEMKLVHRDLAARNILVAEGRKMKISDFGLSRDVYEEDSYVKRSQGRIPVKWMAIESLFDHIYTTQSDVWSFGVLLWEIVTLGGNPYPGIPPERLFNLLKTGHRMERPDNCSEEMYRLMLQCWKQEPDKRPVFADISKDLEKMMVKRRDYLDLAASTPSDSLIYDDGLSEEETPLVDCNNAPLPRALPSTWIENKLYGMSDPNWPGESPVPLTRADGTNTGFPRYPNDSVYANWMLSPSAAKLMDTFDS
Nature of the test: HiBiT-Degradation, RET wild-type degradation assay (Nano-Glo HiBiT Lytic), 293T.144 cells. Format: cell-based. The settings on record: for Emax / DC50: 6.0 hours; for Emax: read-out: 293T.144 RET (658-1114) 6.0 hours (Emax); for DC50: half-maximal degradation concentration, read-out: 293T.144 RET (658-1114) 6.0 hours (DC50). The essentials: (§1)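 HEK293T lines stably expressing HiBiT-tagged RET kinase domain (WT: 293T.144; G810R: 293T.165) were treated with degraders for 6 h in duplicate, 11-point half-log series from 10 μM top dose. Lysis with Nano-Glo HiBiT Lytic reagent, luminescence read; DC50 and Emax (% remaining protein) derived from dose-response curves.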
In general terms: The HiBiT peptide binds its large partner to form an active luciferase.

The next test deals with T2, RET(KD: 658-1114 G810R) (Homo sapiens, UniProt P07949, G810R).
T2 construct: 658-1114; expressed in transfected cells; host or cells: 293T.165 (293T cells, generated in-house)
T2 sequence (P07949 658-1114 G810R): T1 sequence (P07949 658-1114) with G153R
Nature of the test: HiBiT-Degradation, RET G810R degradation assay (Nano-Glo HiBiT Lytic), 293T.165 cells. Format: cell-based. The settings on record: for Emax / DC50: 6.0 hours; for Emax: read-out: 293T.165 RET(KD: 658-1114 G810R) 6.0 hours (Emax); for DC50: read-out: 293T.165 RET(KD: 658-1114 G810R) 6.0 hours (DC50). The essentials:
as §1

Where [1] appears, read: half-maximal degradation concentration.

In general, Emax refers to the greatest response seen or fitted, relative to the assay's reference. The term DC50 denotes the midpoint of the concentration-degradation curve. As for `COc1ccc(CN2C[C@H]3COC[C@@H](C2)N3c2ccc(-c3nc(-c4cnn([C@H]5CC[C@H](N6CCN(c7ccc(NC8CCC(=O)NC8=O)cc7F)CC6)CC5)c4)cn4ncc(C#N)c34)cn2)cn1` (stereo partly drawn) [Compound 160, 6-[1-[4-[4-[4-[(2,6-dioxo-3-piperidyl)amino]-2-fluoro-phenyl]piperazin-1-yl]cyclohexyl]pyrazol-4-yl]-4-[6-[(1R,5S)-7-[(6-methoxy-3-pyridyl)methyl]-3-oxa-7,9-diazabicyclo[3.3.1]nonan-9-yl]-3-pyridyl]pyrazolo[1,5-a]pyrazine-3-carbonitrile], the “293T.144 RET (658-1114) 6.0 hours (IP) [nM]” value (from here on “293T.144 RET … [nM]”) at RET (658-1114) is given as “++++ (<50 nM = ++++)”. Besides, the Emax at RET (658-1114) (% remaining protein) and on RET(KD: 658-1114 G810R) (% remaining protein) was below 30% throughout. Also, the DC50 at RET (658-1114) and at RET(KD: 658-1114 G810R) (setting [1]) was below 50 nM in each case. Further, at RET(KD: 658-1114 G810R), the “293T.165 RET(KD: 658-1114 G810R) 6.0 hours (IP) [nM]” value was “++++ (<50 nM = ++++)”.
With `COc1ccc(CN2C3COCC2CN(c2ccc(-c4nc(-c5cnn([C@H]6CC[C@H](N7CCN(c8cc(OC)c(NC9CCC(=O)NC9=O)cc8F)CC7)CC6)c5)cn5ncc(C#N)c45)cn2)C3)cn1` (stereo partly drawn) [Compound 165, 6-[1-[4-[4-[4-[(2,6-dioxo-3-piperidyl)amino]-2-fluoro-5-methoxy-phenyl]piperazin-1-yl]cyclohexyl]pyrazol-4-yl]-4-[6-[9-[(6-methoxy-3-pyridyl)methyl]-3-oxa-7,9-diazabicyclo[3.3.1]nonan-7-yl]-3-pyridyl]pyrazolo[1,5-a]pyrazine-3-carbonitrile], the “293T.144 RET … [nM]” value on RET (658-1114) is on record as “++++ (<50 nM = ++++)”. Besides, the Emax on RET (658-1114) (% remaining protein) and at RET(KD: 658-1114 G810R) (% remaining protein) was below 30% each time. Besides, the DC50 at RET (658-1114) was below 50 nM; on RET(KD: 658-1114 G810R) (setting [1]), below 100 nM. In addition, the “293T.165 RET(KD: 658-1114 G810R) 6.0 hours (IP) [nM]” value on RET(KD: 658-1114 G810R) is on record as “+++ (<100 nM = +++)”.
In the case of `COc1cc(N2CCN([C@H]3CC[C@H](n4cc(-c5cn6ncc(C#N)c6c(-c6ccc(N7C[C@@H]8[C@@H](CNC(=O)c9ncccc9Cl)[C@@H]8C7)nc6)n5)cn4)CC3)CC2)c(F)cc1NC1CCC(=O)NC1=O` (stereo partly drawn) [Compound 168, 3-chloro-N-[[(1S,5R)-3-[5-[3-cyano-6-[1-[4-[4-[4-[(2,6-dioxo-3-piperidyl)amino]-2-fluoro-5-methoxy-phenyl]piperazin-1-yl]cyclohexyl]pyrazol-4-yl]pyrazolo[1,5-a]pyrazin-4-yl]-2-pyridyl]-3-azabicyclo[3.1.0]hexan-6-yl]methyl]pyridine-2-carboxamide], on RET (658-1114), the “293T.144 RET … [nM]” value is on record as “++++ (<50 nM = ++++)”. The Emax on RET (658-1114) (% remaining protein) and on RET(KD: 658-1114 G810R) (% remaining protein) was below 30% each time. Further, the DC50 at RET (658-1114) was below 50 nM; on RET(KD: 658-1114 G810R) (setting [1]) it was below 100 nM. In addition, the “293T.165 RET(KD: 658-1114 G810R) 6.0 hours (IP) [nM]” value on RET(KD: 658-1114 G810R) was “++++ (<50 nM = ++++)”.
For the compound `CCC1(C(=O)NC(C)C)CCN(c2ccc(-c3nc(-c4ccc(N5CCN(C(=O)CC6(O)CCN(c7ccc8c(N9CCC(=O)NC9=O)nn(C)c8c7)CC6)CC5)cc4)cn4ncc(C#N)c34)cn2)CC1` [Compound 173, 1-(5-(3-cyano-6-(4-(4-(2-(1-(3-(2,4-dioxotetrahydropyrimidin-1(2H)-yl)-1-methyl-1H-indazol-6-yl)-4-hydroxypiperidin-4-yl)acetyl)piperazin-1-yl)phenyl)pyrazolo[1,5-a]pyrazin-4-yl)pyridin-2-yl)-4-ethyl-N-isopropylpiperidine-4-carboxamide], the “293T.144 RET … [nM]” value at RET (658-1114) is “++++ (<50 nM = ++++)”. For the same compound, the Emax at RET (658-1114) (% remaining protein) is below 30%; on RET(KD: 658-1114 G810R) (% remaining protein), below 50%. In addition, the DC50 on RET (658-1114) was below 50 nM; on RET(KD: 658-1114 G810R) (setting [1]) it was below 100 nM. In addition, the “293T.165 RET(KD: 658-1114 G810R) 6.0 hours (IP) [nM]” value at RET(KD: 658-1114 G810R) is given as “+++ (<100 nM = +++)”.
Regarding `CCC1(C(=O)NC(C)C)CCN(c2ccc(-c3nc(-c4ccc(C5CCN(C(=O)CN6CC(c7ccc(NC8CCC(=O)NC8=O)cc7F)C6)CC5)cc4)cn4ncc(C#N)c34)cn2)CC1` (stereo not drawn) [Compound 174, 1-[5-[3-cyano-6-[4-[1-[2-[3-[4-[(2,6-dioxo-3-piperidyl)amino]-2-fluoro-phenyl]azetidin-1-yl]acetyl]-4-piperidyl]phenyl]pyrazolo[1,5-a]pyrazin-4-yl]-2-pyridyl]-4-ethyl-N-isopropyl-piperidine-4-carboxamide], on RET (658-1114), the “293T.144 RET … [nM]” value was “++++ (<50 nM = ++++)”. In addition, the values for the Emax on RET (658-1114) (% remaining protein) and on RET(KD: 658-1114 G810R) (% remaining protein) were below 30% and below 50%, respectively. Also, the DC50 on RET (658-1114) is below 50 nM; on RET(KD: 658-1114 G810R) (setting [1]) it was below 100 nM. Also, the “293T.165 RET(KD: 658-1114 G810R) 6.0 hours (IP) [nM]” value on RET(KD: 658-1114 G810R) is on record as “++++ (<50 nM = ++++)”.
Turning to `N#Cc1cnn2cc(-c3ccc(C4CCN(C(=O)CC5(O)CCN(c6ccc(NC7CCC(=O)NC7=O)cc6F)CC5)CC4)cc3)nc(-c3ccc(N4CCN(C(=O)c5ccon5)CC4)nc3)c12` (stereo not drawn) [Compound 175, 6-[4-[1-[2-[1-[4-[(2,6-dioxo-3-piperidyl)amino]-2-fluoro-phenyl]-4-hydroxy-4-piperidyl]acetyl]-4-piperidyl]phenyl]-4-[6-[4-(isoxazole-3-carbonyl)piperazin-1-yl]-3-pyridyl]pyrazolo[1,5-a]pyrazine-3-carbonitrile], the “293T.144 RET … [nM]” value at RET (658-1114) is given as “++++ (<50 nM = ++++)”. For the same compound, the Emax at RET (658-1114) (% remaining protein) is below 30%; at RET(KD: 658-1114 G810R) (% remaining protein), below 50%. In addition, the DC50 on RET (658-1114) was below 50 nM; at RET(KD: 658-1114 G810R) (setting [1]), below 100 nM. Besides, the “293T.165 RET(KD: 658-1114 G810R) 6.0 hours (IP) [nM]” value on RET(KD: 658-1114 G810R) was “++++ (<50 nM = ++++)”.
Turning to `N#Cc1cnn2cc(-c3cnn(C4CCN(C(=O)CC5(O)CCN(c6ccc(NC7CCC(=O)NC7=O)cc6F)CC5)CC4)c3)nc(-c3ccc(N4CC5CC(C4)N5Cc4ccccc4)nc3)c12` (stereo not drawn) [Compound 176, 4-(6-(6-benzyl-3,6-diazabicyclo[3.1.1]heptan-3-yl)pyridin-3-yl)-6-(1-(1-(2-(1-(4-((2,6-dioxopiperidin-3-yl)amino)-2-fluorophenyl)-4-hydroxypiperidin-4-yl)acetyl)piperidin-4-yl)-1H-pyrazol-4-yl)pyrazolo[1,5-a]pyrazine-3-carbonitrile], the “293T.144 RET … [nM]” value at RET (658-1114) is listed as “++++ (<50 nM = ++++)”. Moreover, the Emax at RET (658-1114) (% remaining protein) and on RET(KD: 658-1114 G810R) (% remaining protein) was below 30% in each case. Further, the DC50 on RET (658-1114) and at RET(KD: 658-1114 G810R) (setting [1]) was below 50 nM in each case. Moreover, the “293T.165 RET(KD: 658-1114 G810R) 6.0 hours (IP) [nM]” value at RET(KD: 658-1114 G810R) is given as “++++ (<50 nM = ++++)”.
`N#Cc1cnn2cc(-c3ccc(N4CCN(C(=O)CC5(O)CCN(c6ccc(NC7CCC(=O)NC7=O)cc6F)CC5)CC4)cc3)nc(-c3ccc(N4CC5CC(C4)N5Cc4ccccc4)nc3)c12` (stereo not drawn) [Compound 177, 4-(6-(6-benzyl-3,6-diazabicyclo[3.1.1]heptan-3-yl)pyridin-3-yl)-6-(4-(4-(2-(1-(4-((2,6-dioxopiperidin-3-yl)amino)-2-fluorophenyl)-4-hydroxypiperidin-4-yl)acetyl)piperazin-1-yl)phenyl)pyrazolo[1,5-a]pyrazine-3-carbonitrile]: the “293T.144 RET … [nM]” value at RET (658-1114) is given as “++++ (<50 nM = ++++)”. In addition, the Emax at RET (658-1114) (% remaining protein) and on RET(KD: 658-1114 G810R) (% remaining protein) was below 30% in each case. The DC50 at RET (658-1114) is below 50 nM; at RET(KD: 658-1114 G810R) (setting [1]) it was below 100 nM. The “293T.165 RET(KD: 658-1114 G810R) 6.0 hours (IP) [nM]” value on RET(KD: 658-1114 G810R) is on record as “++++ (<50 nM = ++++)”.
As for `CCC1(C(=O)NC(C)C)CCN(c2ccc(-c3nc(-c4cnn(C5CCC(CCN6CCC(c7ccc(NC8CCC(=O)NC8=O)cc7F)CC6)CC5)c4)cn4ncc(C#N)c34)cn2)CC1` (stereo not drawn) [Compound 181, 1-(5-(3-Cyano-6-(1-((1r, 4r)-4-(2-(4-(4-((2,6-dioxopiperidin-3-yl)amino)-2-fluorophenyl)piperidin-1-yl)ethyl)cyclohexyl)-1H-pyrazol-4-yl)pyrazolo[1,5-a]pyrazin-4-yl)pyridin-2-yl)-4-ethyl-N-isopropylpiperidine-4-carboxamide], on RET (658-1114), the “293T.144 RET … [nM]” value is on record as “++++ (<50 nM = ++++)” and the DC50 is below 50 nM. The “293T.144 RET (658-1114) 6.0 hours (Emax)” value at RET (658-1114) (% remaining protein) is “++++ (<30% = ++++)”. Moreover, on RET(KD: 658-1114 G810R), the “293T.165 RET(KD: 658-1114 G810R) 6.0 hours (IP) [nM]” value is on record as “++++ (<50 nM = ++++)”. For the same compound, the “293T.165 RET(KD: 658-1114 G810R) 6.0 hours (Emax)” value on RET(KD: 658-1114 G810R) (% remaining protein) is recorded as “++++ (<30% = ++++)”. Besides, at RET(KD: 658-1114 G810R) (setting [1]), the “293T.165 RET(KD: 658-1114 G810R) 6.0 hours (DC50) [nM]” value is “++++ (<50 nM = ++++)”.
